Drawing on ChEMBL document CHEMBL2074434, “Interaction of cytochrome P450 3A inhibitors with P-glycoprotein” (J Pharmacol Exp Ther, 2002), this text covers Ki and Activity for 15 compounds.

Series [1] concerns the target T1, ATP-dependent translocase ABCB1 (Mus musculus, UniProt P21447). Description: TP_TRANSPORTER: increase in Calcein-AM intracellular accumulation in mdr1a-expressing LLC-PK1 cells. The series is classed as functional, cell-based.
Series [2] addresses ATP-dependent translocase ABCB1 (Mus musculus, UniProt P06795). Description: TP_TRANSPORTER: increase in Calcein-AM intracellular accumulation in mdr1b-expressing LLC-PK1 cells. The series is classed as functional, cell-based.
Series [3] concerns the target ATP-dependent translocase ABCB1 (Homo sapiens, UniProt P08183). Description: TP_TRANSPORTER: transepithelial transport (basal to apical) in MDR1-expressing LLC-PK1 cells. In kind it is functional, cell-based. Particulars: pig.
Series [4] concerns the target T1, ATP-dependent translocase ABCB1. Description: TP_TRANSPORTER: increase in kidney concentration in mdr1a(-/-) mouse. In kind it is functional, organism-based. Particulars: in vivo.
Series [5] shares this target. Description: TP_TRANSPORTER: transepithelial transport (basal to apical) in mdr1a-expressing LLC-PK1 cell. In kind it is functional, cell-based. Conditions: pig.
For series [6] the target is unchanged. Description: TP_TRANSPORTER: no influence on tissue distribution in mdr1a(-/-) mouse. In kind it is functional, organism-based. Particulars: in vivo.
Series [7] has the same target. Description: TP_TRANSPORTER: increase in heart concentration in mdr1a(-/-) mouse. The series is classed as functional, organism-based. Particulars: in vivo.
The target is the same in series [8]. Description: TP_TRANSPORTER: increase in spleen concentration in mdr1a(-/-) mouse. In kind it is functional, organism-based. Particulars: in vivo.
For series [9] the target is unchanged. Description: TP_TRANSPORTER: increase in lung concentration in mdr1a(-/-) mouse. Particulars: in vivo. In kind it is functional, organism-based.
The target is the same in series [10]. Description: TP_TRANSPORTER: increase in liver concentration in mdr1a(-/-) mouse. The series is classed as functional, organism-based. Conditions: in vivo.

Bounds are passed on as bounds.

Sequence of ATP-dependent translocase ABCB1 (Mus musculus, UniProt P06795) (P06795 whole entry): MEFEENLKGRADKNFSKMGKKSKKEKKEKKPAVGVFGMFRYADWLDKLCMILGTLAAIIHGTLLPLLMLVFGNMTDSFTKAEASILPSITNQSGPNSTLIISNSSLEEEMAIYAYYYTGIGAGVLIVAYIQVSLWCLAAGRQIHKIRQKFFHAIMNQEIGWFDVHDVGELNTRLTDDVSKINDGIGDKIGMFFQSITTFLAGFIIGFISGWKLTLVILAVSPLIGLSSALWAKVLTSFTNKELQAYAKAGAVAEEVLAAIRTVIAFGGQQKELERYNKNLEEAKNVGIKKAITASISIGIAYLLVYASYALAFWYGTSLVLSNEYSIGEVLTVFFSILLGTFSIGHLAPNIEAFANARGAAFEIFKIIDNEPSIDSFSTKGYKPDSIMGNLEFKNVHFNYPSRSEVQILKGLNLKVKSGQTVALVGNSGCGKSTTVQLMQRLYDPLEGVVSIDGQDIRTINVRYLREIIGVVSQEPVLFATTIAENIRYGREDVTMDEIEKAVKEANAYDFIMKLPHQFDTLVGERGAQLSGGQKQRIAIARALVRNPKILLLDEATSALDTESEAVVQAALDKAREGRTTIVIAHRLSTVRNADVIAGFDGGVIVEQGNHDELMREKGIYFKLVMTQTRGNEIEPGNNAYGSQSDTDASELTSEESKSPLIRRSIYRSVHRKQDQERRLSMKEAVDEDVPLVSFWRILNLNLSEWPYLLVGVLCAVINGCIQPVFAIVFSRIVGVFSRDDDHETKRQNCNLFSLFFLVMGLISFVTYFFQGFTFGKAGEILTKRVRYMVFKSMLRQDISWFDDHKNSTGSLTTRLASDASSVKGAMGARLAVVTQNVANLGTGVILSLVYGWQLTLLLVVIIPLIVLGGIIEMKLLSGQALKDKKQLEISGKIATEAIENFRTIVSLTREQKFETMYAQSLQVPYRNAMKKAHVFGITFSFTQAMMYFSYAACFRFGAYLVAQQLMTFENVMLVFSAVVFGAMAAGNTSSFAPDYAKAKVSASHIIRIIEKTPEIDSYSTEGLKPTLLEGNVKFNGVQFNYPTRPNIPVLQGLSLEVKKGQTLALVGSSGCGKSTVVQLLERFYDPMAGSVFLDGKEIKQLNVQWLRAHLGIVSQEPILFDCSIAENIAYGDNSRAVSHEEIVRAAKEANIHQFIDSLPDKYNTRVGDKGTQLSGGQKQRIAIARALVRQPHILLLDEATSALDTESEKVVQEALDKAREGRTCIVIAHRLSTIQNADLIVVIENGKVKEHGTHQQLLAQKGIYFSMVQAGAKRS
T1 sequence (P21447 whole entry): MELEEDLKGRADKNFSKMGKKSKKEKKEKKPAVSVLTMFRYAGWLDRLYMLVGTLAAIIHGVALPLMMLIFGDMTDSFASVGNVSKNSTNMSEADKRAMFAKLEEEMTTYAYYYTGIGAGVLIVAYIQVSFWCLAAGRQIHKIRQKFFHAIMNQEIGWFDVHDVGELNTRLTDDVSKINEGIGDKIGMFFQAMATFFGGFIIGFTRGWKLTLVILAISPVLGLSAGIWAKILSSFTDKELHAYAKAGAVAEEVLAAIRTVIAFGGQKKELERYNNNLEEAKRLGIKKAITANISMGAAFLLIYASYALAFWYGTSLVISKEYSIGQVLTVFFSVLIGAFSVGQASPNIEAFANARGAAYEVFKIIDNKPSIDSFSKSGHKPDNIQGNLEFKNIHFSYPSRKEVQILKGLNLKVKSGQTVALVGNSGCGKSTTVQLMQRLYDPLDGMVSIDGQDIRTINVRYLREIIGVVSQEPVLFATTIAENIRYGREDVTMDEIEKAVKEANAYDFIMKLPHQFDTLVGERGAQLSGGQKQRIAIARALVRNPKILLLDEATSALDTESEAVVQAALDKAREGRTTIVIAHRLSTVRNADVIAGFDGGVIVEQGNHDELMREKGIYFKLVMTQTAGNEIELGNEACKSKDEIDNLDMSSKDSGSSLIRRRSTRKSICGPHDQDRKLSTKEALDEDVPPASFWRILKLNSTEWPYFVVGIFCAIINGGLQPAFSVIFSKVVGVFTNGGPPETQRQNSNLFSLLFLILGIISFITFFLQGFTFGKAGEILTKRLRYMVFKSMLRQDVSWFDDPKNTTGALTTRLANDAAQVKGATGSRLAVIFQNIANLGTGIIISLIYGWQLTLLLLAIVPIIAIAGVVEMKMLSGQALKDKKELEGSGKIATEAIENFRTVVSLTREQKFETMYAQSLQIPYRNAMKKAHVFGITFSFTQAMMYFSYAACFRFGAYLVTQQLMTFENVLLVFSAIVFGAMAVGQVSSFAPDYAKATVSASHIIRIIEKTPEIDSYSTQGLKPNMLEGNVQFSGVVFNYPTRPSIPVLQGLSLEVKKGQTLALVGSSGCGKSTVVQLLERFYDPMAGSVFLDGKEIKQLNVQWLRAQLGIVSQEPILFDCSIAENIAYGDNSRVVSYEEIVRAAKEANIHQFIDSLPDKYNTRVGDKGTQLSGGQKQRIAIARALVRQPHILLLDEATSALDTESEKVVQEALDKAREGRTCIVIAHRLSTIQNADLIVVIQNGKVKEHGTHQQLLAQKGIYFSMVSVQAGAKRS
Sequence of ATP-dependent translocase ABCB1 (Homo sapiens, UniProt P08183) (P08183 whole entry): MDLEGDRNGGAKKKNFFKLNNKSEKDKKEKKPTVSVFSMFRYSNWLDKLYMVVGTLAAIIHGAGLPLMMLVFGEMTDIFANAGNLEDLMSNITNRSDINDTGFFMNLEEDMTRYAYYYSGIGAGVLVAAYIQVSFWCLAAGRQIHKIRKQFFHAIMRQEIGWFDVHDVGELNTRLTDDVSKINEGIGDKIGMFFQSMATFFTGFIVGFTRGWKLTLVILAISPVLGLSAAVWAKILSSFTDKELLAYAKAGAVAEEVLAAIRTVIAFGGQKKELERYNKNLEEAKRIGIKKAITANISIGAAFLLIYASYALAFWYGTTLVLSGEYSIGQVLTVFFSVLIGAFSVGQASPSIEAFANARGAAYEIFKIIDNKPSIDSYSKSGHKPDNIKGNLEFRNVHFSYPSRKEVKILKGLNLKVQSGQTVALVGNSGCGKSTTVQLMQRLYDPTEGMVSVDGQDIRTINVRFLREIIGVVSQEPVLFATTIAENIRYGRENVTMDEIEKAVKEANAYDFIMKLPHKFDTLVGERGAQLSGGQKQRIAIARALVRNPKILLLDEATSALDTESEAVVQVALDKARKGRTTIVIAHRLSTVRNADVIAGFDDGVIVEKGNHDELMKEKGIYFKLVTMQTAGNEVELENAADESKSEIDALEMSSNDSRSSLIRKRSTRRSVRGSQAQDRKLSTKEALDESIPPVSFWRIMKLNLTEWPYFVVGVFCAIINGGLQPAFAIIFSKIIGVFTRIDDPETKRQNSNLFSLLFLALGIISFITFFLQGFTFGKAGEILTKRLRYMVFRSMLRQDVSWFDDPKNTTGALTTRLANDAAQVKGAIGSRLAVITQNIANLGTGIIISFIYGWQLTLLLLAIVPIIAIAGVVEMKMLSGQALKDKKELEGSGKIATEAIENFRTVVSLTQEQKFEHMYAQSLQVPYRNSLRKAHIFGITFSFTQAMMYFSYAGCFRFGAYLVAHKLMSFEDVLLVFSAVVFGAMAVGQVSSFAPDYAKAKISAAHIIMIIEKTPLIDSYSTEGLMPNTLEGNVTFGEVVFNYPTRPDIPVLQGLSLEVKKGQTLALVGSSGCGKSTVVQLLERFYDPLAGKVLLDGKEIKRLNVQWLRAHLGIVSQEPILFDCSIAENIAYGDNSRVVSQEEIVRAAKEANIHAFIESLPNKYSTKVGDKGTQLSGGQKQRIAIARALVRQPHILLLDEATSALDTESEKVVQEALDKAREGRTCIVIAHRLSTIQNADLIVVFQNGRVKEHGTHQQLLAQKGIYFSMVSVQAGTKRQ

On to `CC(C)C[C@H]1C(=O)N2CCC[C@H]2[C@]2(O)O[C@](NC(=O)[C@@H]3C=C4c5cccc6[nH]c(Br)c(c56)C[C@H]4N(C)C3)(C(C)C)C(=O)N12` [BROMOCRIPTINE], for which the Ki in series [1] was 7.48 µM; in [2] it was 6.39 µM.

Regarding `Clc1ccccc1C(c1ccccc1)(c1ccccc1)n1ccnc1` [CLOTRIMAZOLE], the Ki in [1] was 18.3 µM; in series [2], 25.1 µM.

As to `CC(C)[C@@]1(NC(=O)[C@@H]2C[C@@H]3c4cccc5[nH]cc(c45)C[C@H]3N(C)C2)O[C@@]2(O)[C@@H]3CCCN3C(=O)[C@H](Cc3ccccc3)N2C1=O` [DIHYDROERGOCRISTINE], the Ki is 111 µM in series [1] and 167 µM in series [2]. Also, in series [3], the Activity entry is “substrate [+]”.

For the compound `CC(C)C[C@H]1C(=O)N2CCC[C@H]2[C@]2(O)O[C@](NC(=O)[C@@H]3C[C@@H]4c5cccc6[nH]cc(c56)C[C@H]4N(C)C3)(C(C)C)C(=O)N12` [DIHYDROERGOCRYPTINE], the Activity result in series [4] and in series [5] was “substrate [+]” throughout. Besides, the figures for the Ki in [1] and in [2] were 333 µM and 160 µM, respectively.

For the compound `CN1C[C@H](C(=O)N[C@]2(C)O[C@@]3(O)[C@@H]4CCCN4C(=O)[C@H](Cc4ccccc4)N3C2=O)C[C@@H]2c3cccc4[nH]cc(c34)C[C@H]21` [DIHYDROERGOTAMINE], the Ki in series [1] and in [2] was more than 1000 µM in each case.

In the case of `CC(C)[C@H]1C(=O)N2CCC[C@H]2[C@]2(O)O[C@](NC(=O)[C@@H]3C=C4c5cccc6[nH]cc(c56)C[C@H]4N(C)C3)(C(C)C)C(=O)N12` [ERGOCORNINE], the figures for the Ki in series [1] and in series [2] were 272 µM and 19.1 µM, respectively.

On to `CC(C)[C@@]1(NC(=O)[C@@H]2C=C3c4cccc5[nH]cc(c45)C[C@H]3N(C)C2)O[C@@]2(O)[C@@H]3CCCN3C(=O)[C@H](Cc3ccccc3)N2C1=O` [ERGOCRISTINE], for which the Ki in series [1] was 39.4 µM; in series [2] it was 15.3 µM.

On to `CC(C)C[C@H]1C(=O)N2CCC[C@H]2[C@]2(O)O[C@](NC(=O)[C@@H]3C=C4c5cccc6[nH]cc(c56)C[C@H]4N(C)C3)(C(C)C)C(=O)N12` [ERGOCRYPTINE], for which the Ki in [1] is 43.5 µM; in series [2] it was 26.9 µM.

In the case of `C[C@@H](CO)NC(=O)[C@@H]1C=C2c3cccc4[nH]cc(c34)C[C@H]2N(C)C1` [ERGONOVINE], the results for the inhibition constant (Ki) in series [1] and in series [2] were 118 µM and more than 1000 µM, respectively.

Consider `CN1C[C@H](C(=O)N[C@]2(C)O[C@@]3(O)[C@@H]4CCCN4C(=O)[C@H](Cc4ccccc4)N3C2=O)C=C2c3cccc4[nH]cc(c34)C[C@H]21` [ERGOTAMINE], for which the Ki in [1] was 189 µM; in [2], 18 µM.

Regarding `CC[C@H]1OC(=O)[C@H](C)[C@@H](O[C@H]2C[C@@](C)(OC)[C@@H](O)[C@H](C)O2)[C@H](C)[C@@H](O[C@@H]2O[C@H](C)C[C@H](N(C)C)[C@H]2O)[C@](C)(O)C[C@@H](C)C(=O)[C@H](C)[C@@H](O)[C@]1(C)O` [ERYTHROMYCIN], the inhibitory constant (Ki) in [1] was more than 1000 µM.

For the compound `OC(Cn1cncn1)(Cn1cncn1)c1ccc(F)cc1F` [FLUCONAZOLE], the Activity result in series [5] was “substrate [+]”; in series [6], “is not a substrate [-]”; in series [3] it was “is not a substrate [-]”. For the same compound, the Ki in [1] and in series [2] was more than 1000 µM in each case.

In the case of `Clc1ccc(COC(Cn2ccnc2)c2ccc(Cl)cc2Cl)c(Cl)c1` (stereo not given) [MICONAZOLE], the Ki in series [1] was 22.2 µM.

Consider `COC(=O)[C@H]1[C@H]2C[C@@H]3c4[nH]c5cc(OC)ccc5c4CCN3C[C@H]2C[C@@H](OC(=O)c2cc(OC)c(OC)c(OC)c2)[C@@H]1OC` [RESERPINE], for which the Activity result in [4], in [5], in series [7], in series [8], in [9] and in [10] was “substrate [+]” throughout. The Ki is 4.03 µM in series [1] and 17.9 µM in series [2].

As to `CO[C@H]1C[C@H](O[C@H]2[C@H](C)[C@@H](O[C@@H]3O[C@H](C)C[C@H](N(C)C)[C@H]3OC(C)=O)[C@@H](C)C[C@@]3(CO3)C(=O)[C@H](C)[C@@H](OC(C)=O)[C@@H](C)[C@@H](C)OC(=O)[C@@H]2C)O[C@@H](C)[C@@H]1OC(C)=O` [TROLEANDOMYCIN], the Ki was 217 µM in [1] and more than 1000 µM in [2].
